From ChEMBL document CHEMBL1125480, “Studies on antidiabetic agents. 11. Novel thiazolidinedione derivatives as potent hypoglycemic and hypolipidemic agents” (1992)

Experiments:
Format in all cases: functional
[1] = species on record: Mus musculus; experiment: (§1) Effective dose to reduce 25% of glucose levels in blood; settings: Mus musculus, Blood
[2] = species on record: Mus musculus; experiment: Compound was tested for maximum reduction in plasma triglyceride levels in KKA mice at a dosage of 0.01% in diet
[3] = species on record: Mus musculus; experiment: Compound was tested for maximum reduction in plasma triglyceride levels in KKA mice at a dosage of 0.05% in diet
[4] = species on record: Mus musculus; experiment: Effective dose to reduce 25% of triglyceride levels in plasma
[5] = species on record: Mus musculus; experiment: Compound was tested for maximum reduction in blood glucose levels in KKA mice at a dosage of 0.05% in diet
[6] = species on record: Mus musculus; experiment: Compound was tested for maximum reduction in blood glucose levels in KKA mice at a dosage of 0.01% in diet
[7] = as §1; settings: Mus musculus
[8] = species on record: Mus musculus; experiment: Maximum reduction in blood glucose levels in KKA mice at a dosage of 0.005% in diet
[9] = species on record: Mus musculus; experiment: Maximum reduction in plasma triglyceride levels in KKA mice at a dosage of 0.001% in diet
[10] = species on record: Mus musculus; experiment: Maximum reduction in blood glucose levels in KKA mice at a dosage of 0.001% in diet
[11] = species on record: Mus musculus; experiment: Maximum reduction in plasma triglyceride levels in KKA mice at a dosage of 0.005% in diet

Structure (SMILES): O=C1NC(=O)C(Cc2ccc(OCCc3coc(-c4ccccc4)n3)cc2)S1 (configuration not stated)
- ED25 [1]: 0.3 mg/kg/day
- Reduction [2]: 51%
- Reduction [3]: 68%
- ED25 [4]: 0.5 mg/kg/day
- Reduction [5]: 58%
- Reduction [6]: 41%

Structure (SMILES): Cc1oc(-c2ccco2)nc1CCOc1ccc(CC2SC(=O)NC2=O)cc1 (configuration not stated)
- ED25 [7]: 0.4 mg/kg/day
- Reduction [8]: 50%
- Reduction [9]: 41%
- Reduction [10]: 50%
- Reduction [11]: 69%
- ED25 [4]: 0.9 mg/kg/day
